Results on eight compounds are retold here after ChEMBL document CHEMBL5725682, “Therapeutic inhibitory compounds” (2018).

SMILES strings stand for the structures.

The target of one assay is Plasma kallikrein (Homo sapiens, UniProt P03952). Description: In Vitro Enzyme Inhibition of hPK: A 10 mM solution of the test compound was made in DMSO. […] A control tube containing only DMSO is included. […] 50 μL was removed from this mixture and placed into duplicate wells on a Microfluor 1Black U-bottom microtiter plate (Thermo Scientific). This plate was incubated for 5 minutes at 37° C. To each well, 50 μL of pre-warmed 2×PFR-AMC was added to start the enzymatic reaction. Cleavage of PFR-AMC was monitored in a Biotek Synergy H4 reader set at 37° C. Readings are taken every 43 seconds for 1 hour. […] The IC50 is calculated using the Gen5 (Biotek Instruments).
Chain of Plasma kallikrein (P03952 20-390 limits assumed): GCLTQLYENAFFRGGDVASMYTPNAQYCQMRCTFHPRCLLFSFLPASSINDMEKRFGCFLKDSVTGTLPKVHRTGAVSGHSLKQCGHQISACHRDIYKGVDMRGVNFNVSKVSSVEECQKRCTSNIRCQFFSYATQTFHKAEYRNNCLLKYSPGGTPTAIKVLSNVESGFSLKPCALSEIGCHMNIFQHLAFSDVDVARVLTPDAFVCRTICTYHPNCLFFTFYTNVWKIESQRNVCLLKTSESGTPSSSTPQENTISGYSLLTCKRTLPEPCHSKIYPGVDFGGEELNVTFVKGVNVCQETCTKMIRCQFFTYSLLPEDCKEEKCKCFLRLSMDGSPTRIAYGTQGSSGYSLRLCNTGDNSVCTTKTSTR
Chain of Plasma kallikrein (P03952 391-638 limits assumed): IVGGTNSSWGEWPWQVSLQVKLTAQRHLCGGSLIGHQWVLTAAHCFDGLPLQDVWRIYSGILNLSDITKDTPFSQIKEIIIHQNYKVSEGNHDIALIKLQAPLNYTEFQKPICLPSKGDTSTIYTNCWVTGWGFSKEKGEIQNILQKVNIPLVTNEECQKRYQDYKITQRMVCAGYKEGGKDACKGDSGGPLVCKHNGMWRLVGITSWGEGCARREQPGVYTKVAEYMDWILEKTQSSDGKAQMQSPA

Assay [1] in a line: In Vitro Contact Cellular Assay: The test compounds at various concentrations, also prepared by serial dilutions as described above, are added to the test wells. The volume of test compound added to each test well was 12.5 μL, to yield final concentrations of 20 μM, 5 μM, 1.25 μM, 312.5 nM, 78.125 nM, 19.531 nM, 4.883 nM, 1.221 nM, 0.305 nM, and 0.076 nM. Each test compound concentration was tested in duplicates.In addition to the inhibitor control and test wells, the 96 well assay plate includes positive control wells which contained the mixture of human plasma and ellagic acid without C1NH inhibitor or test compounds, and background wells which contained neither the mixture of human plasma and ellagic acid nor the test compounds. The total volume of liquid in positive control and background wells was brought up to 35 μL, using the assay buffer.The assay plate containing C1NH inhibitors and test compounds mixed with human plasma and ellagic acid and appropriate controls was incubated at 37° C. for 5 min. A 10 mM stock solution of substrate Z-FR-2-AMC was diluted to 133.2 μM in the assay buffer, and 15 μL of the diluted substrate was added to each well, to yield a final substrate concentration of 40 μM in each well. The reagents were mixed well by shaking the plate gently for 30 sec.The enzyme reaction was quantified by immediate kinetic reading of the assay plate using excitation/emission wavelengths of 330 nm/440 nm respectively. Fluorescence intensity was recorded for 60 min, using a time interval of 43 sec.The inhibition activity of the test compounds were evaluated using the EC50 values, calculated according to the dose-response curve of the test compounds, fitted using the log(inhibitor)−response (variable slope)¿ equation in GraphPadPrism software (GraphPad Software, Inc.).

`Cc1nc(N)ccc1CNC(=O)c1ccnc(Cc2ccc3ncc(C4CC4)cc3c2)c1`: the IC50 at Plasma kallikrein was less than 100 nM. Further, the EC50 in assay [1] is less than 100 nM.

On to `Cc1nc2c(cc1CNC(=O)c1ccnc(Cc3ccc4ncc(Cl)cc4c3)c1)CNC2`, for which the IC50 on Plasma kallikrein was more than 10000 nM.

For the compound `Cc1cc(C(=O)NCc2c(C)cc(N)nc2C)cc(Cc2ccc3ncc(Cl)cc3c2)n1`, the EC50 in assay [1] is less than 100 nM. Still for that read-out and setting: the result for `Cc1cc(N)nc(C)c1CNC(=O)c1cc(Cc2ccc3ncc(Cl)cc3c2)nc(C(N)=O)c1` reads “in the range around 550 nM”. For the compound `Cc1cc(N)nc(C)c1CNC(=O)c1ccnc(Cc2cccc(-c3noc(=O)[nH]3)c2)c1`, at Plasma kallikrein, the IC50 is more than 10000 nM. The same measure, in the same setting: to `Nc1nccc2cc(CNC(=O)c3ccnc(Cc4ccc5ncc(N6CCCC6)cc5c4)c3)ccc12` belongs less than 100 nM. In the case of `Cc1cc(N)nc(C)c1CNC(=O)c1ccnc(Cc2ccc3ncc(CC(F)F)cc3c2)c1`, on Plasma kallikrein, the IC50 is less than 100 nM. Further, the EC50 in assay [1] was less than 100 nM. `Nc1nccc2cc(CNC(=O)c3ccnc(Cc4ccc5ncc(Cl)cc5c4)c3)ccc12`: in assay [1], the EC50 is less than 100 nM.
